Columns and labels:
Assay in all cases: relative viability (nuclei count vs DMSO), 5 days (fraction); higher = more cells survive
NVP-TAE684 + Luminespib = compound: COc1cc(N2CCC(N3CCN(C)CC3)CC2)ccc1Nc1ncc(Cl)c(Nc2ccccc2S(=O)(=O)C(C)C)n1 [NVP-TAE684] + CCNC(=O)c1noc(-c2cc(C(C)C)c(O)cc2O)c1-c1ccc(CN2CCOCC2)cc1 [Luminespib] (partner 0.01 µM)
Procedure, shortened: (§1)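 After 5 days of treatment, lung cancer cells in 1536-well plates were fixed and stained in a single step (final 0.05% Triton X-100, 1% formaldehyde, 1 ug/ml Hoechst) and their nuclei counted on 4× images. Treatment had been applied by pin tool the day after seeding as one drug alone or as a fixed anchor-drug dose with five library-drug doses (not always all listed) in √10 steps. Relative viability is the nuclei count of treated wells divided by that of vehicle wells, and values are medians of duplicate plates.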

NVP-TAE684 + Alpelisib = compound: COc1cc(N2CCC(N3CCN(C)CC3)CC2)ccc1Nc1ncc(Cl)c(Nc2ccccc2S(=O)(=O)C(C)C)n1 [NVP-TAE684] + Cc1nc(NC(=O)N2CCC[C@H]2C(N)=O)sc1-c1ccnc(C(C)(C)C(F)(F)F)c1 [Alpelisib] (partner 2 µM)
Procedure, shortened: as §1

Vandetanib + Palbociclib = compound: COc1cc2/c(=N/c3ccc(Br)cc3F)nc[nH]c2cc1OCC1CCN(C)CC1 [Vandetanib] + CC(=O)c1c(C)c2cnc(Nc3ccc(N4CCNCC4)cn3)nc2n(C2CCCC2)c1=O [Palbociclib] (partner 0.5 µM)
Procedure, shortened: as §1

Vandetanib + Pictilisib = compound: COc1cc2/c(=N/c3ccc(Br)cc3F)nc[nH]c2cc1OCC1CCN(C)CC1 [Vandetanib] + CS(=O)(=O)N1CCN(Cc2cc3nc(-c4cccc5[nH]ncc45)nc(N4CCOCC4)c3s2)CC1 [Pictilisib] (partner 1 µM)
Procedure, shortened: as §1

| Cell Line | relative viability (NVP-TAE684 + Luminespib; first compound 0.2 µM) | relative viability (NVP-TAE684 + Luminespib; first compound 0.6325 µM) | relative viability (NVP-TAE684 + Luminespib; first compound 2 µM) | relative viability (NVP-TAE684 + Alpelisib; first compound 0.2 µM) | relative viability (NVP-TAE684 + Alpelisib; first compound 0.6325 µM) | relative viability (NVP-TAE684 + Alpelisib; first compound 2 µM) | relative viability (Vandetanib + Palbociclib; first compound 0.02 µM) | relative viability (Vandetanib + Palbociclib; first compound 0.06325 µM) | relative viability (Vandetanib + Palbociclib; first compound 0.2 µM) | relative viability (Vandetanib + Palbociclib; first compound 0.6325 µM) | relative viability (Vandetanib + Palbociclib; first compound 2 µM) | relative viability (Vandetanib + Pictilisib; first compound 0.02 µM) | relative viability (Vandetanib + Pictilisib; first compound 0.06325 µM) | relative viability (Vandetanib + Pictilisib; first compound 0.2 µM) | relative viability (Vandetanib + Pictilisib; first compound 0.6325 µM) | relative viability (Vandetanib + Pictilisib; first compound 2 µM) |
| --- | --- | --- | --- | --- | --- | --- | --- | --- | --- | --- | --- | --- | --- | --- | --- | --- |
| NCI-H1437 | 1.14 | 1.13 | 1.08 | 1 | 1 | 0.516 | 0.295 | 0.32 | 0.346 | 0.302 | 0.341 | 0.463 | 0.419 | 0.432 | 0.357 | 0.481 |
| EPLC-272H | 0.185 | 0.382 | 0.217 | 0.799 |  | 0.9 | 0.329 | 0.321 | 0.329 | 0.282 | 0.311 | 0.363 | 0.311 | 0.121 | 0.355 | 0.166 |
| NCI-H1703 |  |  |  | 0.401 | 0.334 | 0.21 |  |  |  |  |  | 0.244 | 0.217 | 0.212 | 0.211 | 0.231 |
| HCC-15 | 0.241 | 0.271 | 0.232 | 0.865 | 0.933 | 0.678 | 0.647 | 0.713 | 0.646 | 0.75 | 0.721 | 0.795 | 0.678 | 0.696 | 0.767 | 0.796 |
| NCI-H2347 | 0.245 | 0.264 | 0.45 | 1.14 | 1.07 | 0.906 | 0.423 | 0.315 | 0.476 | 0.457 | 0.443 | 0.849 | 0.601 | 0.571 | 0.462 | 0.788 |
| COR-L 105 | 0.674 | 0.798 | 0.317 | 0.852 | 0.926 | 0.538 | 0.388 | 0.442 | 0.392 | 0.38 | 0.39 | 0.408 | 0.405 | 0.412 | 0.344 | 0.335 |
| NCI-H1650 | 0.184 | 0.206 | 0.182 |  |  |  | 0.34 | 0.291 | 0.289 | 0.318 | 0.244 | 0.561 | 0.511 |  | 0.555 | 0.515 |
| NCI-H838 | 0.27 | 0.275 | 0.282 | 1.06 | 0.97 | 0.537 | 0.219 | 0.227 | 0.243 | 0.216 | 0.219 | 0.461 | 0.357 | 0.457 | 0.426 | 0.415 |
| NCI-H2009 | 0.925 | 1.05 | 0.944 | 1.11 | 1.14 | 0.927 | 0.221 | 0.3 | 0.197 | 0.25 | 0.25 | 0.78 | 0.669 | 0.79 | 0.828 | 0.81 |
| SK-MES-1 | 0.842 | 0.76 | 0.321 | 0.691 | 1 | 0.827 | 0.349 | 0.292 | 0.243 | 0.332 | 0.294 | 0.379 | 0.294 | 0.319 | 0.259 | 0.22 |
| H3255 | 0.897 | 0.828 | 0.765 | 0.716 | 0.608 | 0.491 | 0.316 | 0.311 | 0.32 | 0.298 | 0.245 | 0.469 | 0.392 | 0.386 | 0.263 | 0.126 |
| HCC-78 |  |  |  | 0.319 | 0.198 | 0.282 | 0.443 | 0.485 | 0.479 | 0.518 | 0.446 | 0.192 | 0.294 | 0.234 | 0.231 | 0.189 |
| Calu-6 |  |  |  | 0.854 | 0.912 | 0.517 |  |  |  |  |  | 0.938 | 0.9 | 0.881 | 0.807 | 0.907 |
| ChaGo-K-1 | 0.661 | 0.67 | 0.44 |  |  |  | 0.921 | 0.881 | 0.19 | 0.887 | 0.927 | 0.632 | 0.713 | 0.619 | 0.87 | 0.28 |
| NCI-H2342 | 0.742 | 0.845 | 0.647 |  |  |  | 0.525 | 0.507 | 0.518 | 0.477 | 0.569 |  |  |  |  |  |
| NCI-H1563 | 0.542 | 0.548 | 0.407 | 0.802 | 0.828 | 0.903 |  |  |  |  |  | 0.62 | 0.707 | 0.623 | 0.656 | 0.657 |
| EBC-1 |  |  |  | 0.772 | 0.824 | 0.559 |  |  |  |  |  | 0.465 | 0.345 | 0.404 | 0.359 | 0.242 |
| SW 900 | 0.164 | 0.154 | 0.158 |  |  |  | 0.624 | 0.547 |  | 0.48 | 0.409 |  |  |  |  |  |
| NCI-H596 | 0.914 | 0.832 | 0.758 | 0.526 | 0.517 | 0.375 |  |  |  |  |  | 0.395 | 0.35 | 0.323 | 0.398 | 0.352 |
| A549 |  |  |  | 0.823 | 0.58 | 0.253 |  |  |  |  |  | 0.499 | 0.419 | 0.614 | 0.473 | 0.412 |
| NCI-H1648 |  |  |  |  |  |  | 0.27 | 0.245 | 0.2 | 0.284 | 0.24 |  |  |  |  |  |

Reference: the supplement of paper PMC10307832
